Our source for the IC50 and LC50 values is patent publication US5683895A, “9-deazaadenosine and its 5'-α-D-glycopyranoside isolated from the cyanobacterium Anabaena affinis strain VS-1” (priority 1995, dated 1997).

The structures appear in SMILES notation. Values after ≈ are worked out from the molar mass of the structure shown.

The term IC50 denotes the point on the concentration scale where inhibition reaches its midpoint. Read a high IC50 as lower potency. Usually LC50 stands for the concentration lethal to half of the exposed cells or organisms.

For data set [1], the system named is L1210 murine leukemia cells. Description: Cytotoxicity to L1210 murine leukemia cells. The following applies: Mus musculus. Format: cell-based.
Data set [2] can be described thus: Lethal toxicity to the aquatic invertebrate Ceriodaphnia dubia (acute 48 hr and chronic 7 day). The conditions noted are these: in vivo.

`Nc1ncnc2c([C@@H]3O[C@H](CO[C@H]4O[C@H](CO)[C@@H](O)[C@H](O)[C@H]4O)[C@@H](O)[C@H]3O)c[nH]c12` [Compound 1, 9-deazaadenosine 5'-α-D-glucopyranoside] displayed an IC50 in data set [1] of 0.01 µg/mL (≈ 0.0233 µM). Further, in data set [2], the LC50 at 48 h was 0.5 µg/mL (≈ 1.17 µM) and the median lethal concentration (LC50) at 168 h came to 0.3 µg/mL (≈ 0.7 µM).

In data set [1], `Nc1ncnc2c([C@@H]3O[C@H](CO)[C@@H](O)[C@H]3O)c[nH]c12` [Compound 2, 9-deazaadenosine] showed an IC50 of 0.002 µg/mL (≈ 0.00751 µM). In addition, in data set [2], the LC50 at 48 h turned out to be 0.3 µg/mL (≈ 1.13 µM) and the LC50 at 168 h stood at 0.1 µg/mL (≈ 0.376 µM).
